Measurements from patent publication US20150376235A1, “Peptides for the Treatment of Immune Reconstitution Inflammatory Syndrome (IRIS) and Related Diseases” (priority 2014, published 2015).
Non-standard residues stand in square brackets, D forms with d. No end group written: not given here.

What was measured:
[1] = tested on: inflammatory cytokines, chemokines, and receptors; details: Rat; oral gavage 0.05-1 mg/kg, 7 days
Excerpt: The specific experimental details are provided in Padi, 2012.

[2] = Pharmacokinetic study following intravenous and oral administration, LC-MS/MS of plasma; format: in vivo, male Sprague Dawley rat
Method: A pharmacokinetic study of all-D [TTNYT] (RAP-103) (SEQ ID NO:2) following intravenous and oral administration was conducted at a target dose level of 1 mg/kg in the male Sprague Dawley rat. The concentration of RAP-103 in each plasma and brain sample was measured using a suitable LC-MS/MS assay. The assay used was a research grade assay (RGA-1) which was established by assessing the accuracy, precision and the linearity of the method. Plasma concentrations generated were used to evaluate the pharmacokinetic parameters of all-D-TTNYT (RAP-103).
The dose formulation was administered intravenously to multiple animals as a slow bolus over ca 30 s via the tail vein and to a different group of animals orally via gastric gavage at a target dose volume of 1 mL/kg, to achieve a target dose level of 1 mg/kg. The dose volume administered was calculated according to the bodyweight of the animal on the day of dosing. The weight of administered dose was recorded. […] Results expressed as ng/mL

CCR2 = CCR2 (Homo sapiens, UniProt P41597); details: 30 min pretreatment; human MCP-1 50 ng/mL, 90 min; cited from earlier work
CCR2, sequence (P41597 whole entry): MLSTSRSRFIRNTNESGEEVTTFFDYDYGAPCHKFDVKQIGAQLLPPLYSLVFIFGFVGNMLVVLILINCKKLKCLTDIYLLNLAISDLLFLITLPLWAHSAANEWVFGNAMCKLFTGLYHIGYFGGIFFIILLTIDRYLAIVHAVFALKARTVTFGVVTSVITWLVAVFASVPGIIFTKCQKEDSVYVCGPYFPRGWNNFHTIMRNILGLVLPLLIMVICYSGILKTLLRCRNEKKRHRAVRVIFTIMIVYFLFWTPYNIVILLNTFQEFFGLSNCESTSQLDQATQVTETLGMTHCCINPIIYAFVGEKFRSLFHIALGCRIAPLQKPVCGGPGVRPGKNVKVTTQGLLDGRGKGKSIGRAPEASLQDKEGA

CCR5 = CCR5 (Homo sapiens, UniProt P51681); details: 30 min pretreatment; human MIP-1β 50 ng/mL, 90 min; cited from earlier work
CCR5, sequence (P51681 whole entry): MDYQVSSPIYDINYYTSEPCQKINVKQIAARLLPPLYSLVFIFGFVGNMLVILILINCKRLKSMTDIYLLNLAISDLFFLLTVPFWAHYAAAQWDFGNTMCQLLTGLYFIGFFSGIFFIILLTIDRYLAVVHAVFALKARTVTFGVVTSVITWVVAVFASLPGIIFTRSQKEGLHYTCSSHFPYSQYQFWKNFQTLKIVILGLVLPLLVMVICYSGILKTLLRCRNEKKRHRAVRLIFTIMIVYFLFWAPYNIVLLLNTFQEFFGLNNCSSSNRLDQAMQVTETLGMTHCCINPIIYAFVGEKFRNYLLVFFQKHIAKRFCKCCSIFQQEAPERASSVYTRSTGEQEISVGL

[3] = tested on: inflammatory cytokines, chemokines, and receptors; details: Rat; oral gavage 0.05-1 mg/kg, 7 days; cited from earlier work
[4] = tested on: rats with partial ligation of the sciatic nerve; details: cited from earlier work
CCR2 (MCP-1) = target: T1, CCR2 (MCP-1) (Homo sapiens, UniProt P41597); assay: CCR2 (MCP-1) elicited chemotaxis of human monocytes, all-D-pentapeptides (FIG. 4); format: cell-based; details: 20 pM peptide 30 minutes; MCP-1 0.6 nM, 2 hours
T1 construct: Purified human monocytes were treated with 20 pM of All-D-pentapeptides for 30 minutes; endogenous in cells; host or cells: purified human monocytes
T1 sequence (P41597 whole entry): as the sequence (P41597 whole entry) above
Method: Purified human monocytes were treated with 20 pM of All-D-pentapeptides for 30 minutes prior to chemotaxis against human MCP-1 (0.6 nM) for 2 hours. […] A representative experiment is shown comprising triplicate determinations and is presented as relative fluorescence units, Mean±SEM.

CCL2 (MCP-1) = target: T2, CCL2 (MCP-1) (Homo sapiens, UniProt P41597); assay: Blocking CCL2 (MCP-1) chemotaxis at low concentration (FIG. 3); format: cell-based; details: compounds at 10^−14 M
T2 construct: endogenous in cells; host or cells: human monocytes
T2 sequence (P41597 1-360 isoform P41597-2): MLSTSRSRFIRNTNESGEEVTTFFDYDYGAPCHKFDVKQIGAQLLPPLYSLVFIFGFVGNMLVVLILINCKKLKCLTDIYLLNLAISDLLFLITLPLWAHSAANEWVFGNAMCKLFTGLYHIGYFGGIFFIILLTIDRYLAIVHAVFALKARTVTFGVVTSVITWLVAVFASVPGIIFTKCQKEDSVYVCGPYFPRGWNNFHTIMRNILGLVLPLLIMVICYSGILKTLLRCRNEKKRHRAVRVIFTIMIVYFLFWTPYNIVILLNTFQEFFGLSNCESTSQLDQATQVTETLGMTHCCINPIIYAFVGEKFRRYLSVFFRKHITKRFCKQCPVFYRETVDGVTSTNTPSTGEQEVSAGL
Excerpt: FIG. 3 illustrates the effects of several all-D amino acid peptides in blocking CCL2 (MCP-1) chemotaxis at low concentration. The amino acid sequences of these peptides are: SSTYR (SEQ ID NO:3), TTSYT (SEQ ID NO:4) and NTSYR (SEQ ID NO:7)
In order to show the generalizability of the all-D-amino acid modifications we synthesized additional examples and tested them for antagonism of chemokines receptors implicated in the subject diseases, FIG. 3
Additional All-D-(Pepntapeptides) from V2 Region Block CCR5/CCR2 Human Monocyte Chemotaxis
In FIG. 3, the effects of RAPs in blocking CCL2 (MCP-1) chemotaxis was illustrated.

MCP-1/CCR2 = target: T3, MCP-1/CCR2 (Homo sapiens, UniProt P41597); assay: MCP-1/CCR2 elicited β-integrin-mediated adhesion of human monocytes to human fibronectin (FIG. 5); format: cell-based; details: 10 minutes pretreatment
T3 construct: endogenous in cells; host or cells: human monocytes
T3 sequence (P41597 whole entry): as the sequence (P41597 whole entry) above
Method: The results are of interest as approved treatments for MS include the immunosupressive monoclonal antibody therapy “Tysabri”, which blocks T cell binding to cellular integrins, and thereby infiltration of inflammatory cells into brains of MS patients.
All-D-(IDNYT) Inhibition of Human Monocyte and THP-1 Cell β-Integrin-Mediated Adhesion to hu-Fibronectin
Human monocytes were treated with the indicated doses of all-D-(IDNYT) for 10 minutes prior to adherence to the β-integrin human fibronectin. Data is the average of two separate experiments, conducted with triplicate determinations. Data are presented as Mean±SEM of the normalized adherence response from two experiments. The IC50 for inhibition of MCP-1 stimulated adherence was generated using a nonlinear inhibition curve fit in GraphPad Prism Version 5.0.

inflammatory cytokines = details: Hu; cited from earlier work
TLR4 = TLR4 (human, UniProt O00206 24-839); assay: cell-based or functional assay
TLR4, sequence (O00206 24-839): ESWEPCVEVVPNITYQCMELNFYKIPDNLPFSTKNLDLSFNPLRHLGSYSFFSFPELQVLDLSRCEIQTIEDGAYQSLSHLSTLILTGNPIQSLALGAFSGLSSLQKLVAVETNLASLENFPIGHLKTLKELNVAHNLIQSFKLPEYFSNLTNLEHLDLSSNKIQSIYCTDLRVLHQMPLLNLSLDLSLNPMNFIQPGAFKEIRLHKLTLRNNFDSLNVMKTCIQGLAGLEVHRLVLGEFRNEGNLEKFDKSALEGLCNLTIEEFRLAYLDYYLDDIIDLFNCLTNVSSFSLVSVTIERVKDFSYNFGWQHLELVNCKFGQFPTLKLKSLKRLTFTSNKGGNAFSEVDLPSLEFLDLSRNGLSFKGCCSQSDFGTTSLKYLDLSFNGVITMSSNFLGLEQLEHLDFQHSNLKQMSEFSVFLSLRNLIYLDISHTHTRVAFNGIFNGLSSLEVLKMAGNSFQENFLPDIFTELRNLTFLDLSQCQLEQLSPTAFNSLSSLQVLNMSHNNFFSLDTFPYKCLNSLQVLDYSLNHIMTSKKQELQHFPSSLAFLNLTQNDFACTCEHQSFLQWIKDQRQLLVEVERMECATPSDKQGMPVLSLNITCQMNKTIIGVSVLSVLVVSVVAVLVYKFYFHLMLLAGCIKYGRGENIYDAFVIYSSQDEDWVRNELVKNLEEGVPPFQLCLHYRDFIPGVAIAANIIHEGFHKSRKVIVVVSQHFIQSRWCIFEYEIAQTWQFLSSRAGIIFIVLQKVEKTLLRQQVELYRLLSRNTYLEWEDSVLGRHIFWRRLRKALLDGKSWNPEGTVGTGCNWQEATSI

Molecule: C[C@H](O)[C@@H](N)C(=O)N[C@@H](C(=O)N[C@H](CC(N)=O)C(=O)N[C@H](Cc1ccc(O)cc1)C(=O)N[C@@H](C(=O)O)[C@H](C)O)[C@H](C)O [RAP-103, All-D-TTNYT]
- CCL2 change [1]: decrease
- CCL3 change [1]: decrease
- CCR2 change [1]: decrease
- CCR5 change [1]: decrease
- MCP-1 change [1]: decrease
- MIP-1α change [1]: decrease
- TNFα change [1]: decrease
- time of peak levels in plasma ([2]; 1 mg/kg, male rat): 10 to 15 min
- tolerability of dose administrations ([2]; intravenous and oral, 1 mg/kg, male rat): well tolerated
- level at 0.25 h ([2]; male, Sprague-Dawley, rat, plasma, po, 1 mg/kg, oral 1 mg/kg, 0.25 h, individual animals 004M, 005M, 006M, read-out: plasma concentration): 6.42 ng/mL
- level at 0.5 h ([2]; male, Sprague-Dawley, rat, plasma, po, 1 mg/kg, oral 1 mg/kg, 0.5 h, individual animals 004M, 005M, 006M, read-out: plasma concentration): 10.2 ng/mL
- level at 2 h ([2]; male, Sprague-Dawley, rat, plasma, po, 1 mg/kg, oral 1 mg/kg, 2 h, individual animals 004M, 005M, 006M, read-out: plasma concentration): 12 ng/mL
- level at 4 h ([2]; male, Sprague-Dawley, rat, plasma, po, 1 mg/kg, oral 1 mg/kg, 4 h, individual animals 004M, 005M, 006M, read-out: plasma concentration): 9.09 ng/mL
- level at 8 h ([2]; male, Sprague-Dawley, rat, plasma, po, 1 mg/kg, oral 1 mg/kg, 8 h, individual animals 004M, 005M, 006M, read-out: plasma concentration): 6.67 ng/mL
- plasma concentration ([2]; oral 1 mg/kg, male rat, 0.083 h, individual animals 004M, 005M, 006M): <LLOQ
- plasma concentration ([2]; oral 1 mg/kg, male rat, 0.25 h, individual animals 004M, 005M, 006M, 1 mg/kg): <LLOQ
- plasma concentration ([2]; oral 1 mg/kg, male rat, 1 h, individual animals 004M, 005M, 006M): <LLOQ
- plasma concentration ([2]; oral 1 mg/kg, male rat, 2 h, individual animals 004M, 005M, 006M, 1 mg/kg): <LLOQ
- plasma concentration ([2]; oral 1 mg/kg, male rat, 4 h, individual animals 004M, 005M, 006M, 1 mg/kg): <LLOQ
- plasma concentration ([2]; oral 1 mg/kg, male rat, 8 h, individual animals 004M, 005M, 006M, 1 mg/kg): <LLOQ
- plasma concentration ([2]; oral 1 mg/kg, male rat, 12 h, individual animals 004M, 005M, 006M): <LLOQ
- blocking of MCP-1-elicited chemotaxis (CCR2): potently blocking
- blocking of MIP-1β-elicited chemotaxis (CCR5): potently blocking
- IL-1β change [3]: decrease
- IL-6 change [3]: decrease
- already established hypersensitivity ([4]; 0.2-1 mg/kg, days 8 to 12): reverses
- development of thermal hyperalgesia ([4]; oral 0.05-1 mg/kg for 7 days): inhibits the development
- mechanical allodynia ([4]; oral 0.05-1 mg/kg for 7 days): fully prevents
- monocyte infiltration ([4]; peripheral nerve injury): reduce
- spinal microglial activation ([4]; peripheral nerve injury): reduce

Molecule: NTSYG ([dN][dT][dS][dY]G; not fully specified (residue 5))
- inhibition of CCR2 (MCP-1) elicited chemotaxis (CCR2 (MCP-1)): potently block

Molecule: NTSYR ([dN][dT][dS][dY][dR])
- blocking CCL2 (MCP-1) chemotaxis (CCL2 (MCP-1)): retain potency

Molecule: ETWYS ([dE][dT][dW][dY][dS])
- inhibition of CCR2 (MCP-1) elicited chemotaxis (CCR2 (MCP-1)): potently block

Molecule: TTSYT ([dT][dT][dS][dY][dT])
- blocking CCL2 (MCP-1) chemotaxis (CCL2 (MCP-1)): retain potency

Molecule: NTRYR
- inhibition of CCR2 (MCP-1) elicited chemotaxis (CCR2 (MCP-1)): potently block

Molecule: SSTYR ([dS][dS][dT][dY][dR])
- blocking CCL2 (MCP-1) chemotaxis (CCL2 (MCP-1)): retain potency

Molecule: IDNYT ([dI][dD][dN][dY][dT])
- inhibition of CCR2 (MCP-1) elicited chemotaxis (CCR2 (MCP-1)): potently block
- blocking of MCP-1 elicited adhesion to human fibronectin (MCP-1/CCR2): potently blocking

Molecule: D-ala1-peptide T-amide [RAP-101]
- IL-1 change (inflammatory cytokines): decrease
- IL-6 change (inflammatory cytokines): decrease
- IL-8 change (inflammatory cytokines): decrease
- TNFα change (inflammatory cytokines): decrease

B1: all-D[TTNYT] (RAP-103) (peptide)
peptide: [dT][dT][dN][dY][dT]
- IC50 for inhibition of LPS-induced TNFα production in monocyte-derived iDC (TLR4): ~0.1 pM
